Source: the supplement of paper PMC10307832

Assays:
Midostaurin + AZD7762 = compound: CO[C@@H]1[C@H](N(C)C(=O)c2ccccc2)C[C@H]2O[C@]1(C)n1c3ccccc3c3c4c(c5c6ccccc6n2c5c31)C(=O)NC4 [Midostaurin] + NC(=O)Nc1cc(-c2cccc(F)c2)sc1C(=O)N[C@H]1CCCNC1 [AZD7762] (partner 0.2 µM); test: relative viability (nuclei count vs DMSO), 5 days (fraction); higher = more cells survive
Summary of the method: (§1)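 The day after seeding in 1536-well plates, lung cancer cell lines were treated by pin tool with a single drug, or with a fixed anchor-drug dose together with five library-drug doses (not always all listed) in √10 steps. After 5 days, a combined fix-and-stain solution (final 0.05% Triton X-100, 1% formaldehyde, 1 ug/ml Hoechst) was added. Nuclei counted on 4× images gave relative viability as treated counts over vehicle counts, reported as the median of duplicate plates.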

Midostaurin + Trametinib = compound: CO[C@@H]1[C@H](N(C)C(=O)c2ccccc2)C[C@H]2O[C@]1(C)n1c3ccccc3c3c4c(c5c6ccccc6n2c5c31)C(=O)NC4 [Midostaurin] + CC(=O)Nc1cccc(-n2c(=O)n(C3CC3)c(=O)c3c(Nc4ccc(I)cc4F)n(C)c(=O)c(C)c32)c1 [Trametinib] (partner 0.02 µM); test: as above
Summary of the method: as §1

Cell Line	relative viability (Midostaurin + AZD7762; first compound 0.01 µM)	relative viability (Midostaurin + AZD7762; first compound 0.03162 µM)	relative viability (Midostaurin + AZD7762; first compound 0.1 µM)	relative viability (Midostaurin + AZD7762; first compound 0.3162 µM)	relative viability (Midostaurin + Trametinib; first compound 0.01 µM)	relative viability (Midostaurin + Trametinib; first compound 0.03162 µM)	relative viability (Midostaurin + Trametinib; first compound 0.1 µM)	relative viability (Midostaurin + Trametinib; first compound 0.3162 µM)
201T	0.509	0.687	0.595	0.66	0.714	0.707	0.755	0.795
A-427	0.742	0.727	0.871	0.723	0.671	0.809	0.712	0.637
ABC-1	0.844	0.824	0.729					
BEN	0.743	0.659	0.722	0.726	1.05	0.976	1.06	1.25
CAL-12T	0.608	0.553	0.469	0.452	0.399	0.298	0.331	0.33
COR-L23					0.599	0.555	0.573	0.497
COR-L 105					0.483	0.445	0.433	0.477
ChaGo-K-1	0.895	0.837	0.677	0.946	0.949	0.963	0.806	0.915
EKVX	0.604	0.713	0.883	0.778	0.321	0.348	0.292	0.351
EMC-BAC-2	1.08	1.03	1.04	1.08	0.853	0.791	0.876	0.699
EPLC-272H	0.208	0.287	0.259	0.165	0.352	0.304	0.28	0.301
H3255	0.857	0.786	0.915	0.89	0.61	0.608	0.656	0.628
HARA	0.301	0.475	0.394	0.299	0.994	0.663	0.887	0.393
HCC-15	1.16	0.98	0.532	1.07	0.411	0.353	0.367	0.372
HCC-44	0.961	0.978	0.998	0.986	1.05	1.01	1.06	1.05
HCC-78	0.682	1.09	0.644	0.483	0.757	0.612	0.739	0.463
HCC-366	0.235	0.373	0.273	0.0975	0.304	0.33	0.283	0.122
HCC-827	0.246	0.206	0.237	0.215	0.557	0.488	0.607	0.641
HOP-62	0.527	0.568	0.727	0.553	0.473	0.42	0.362	0.362
LC-2-ad	0.873	0.878	0.843	0.724	0.906	0.918	0.749	0.9
LCLC-97TM1	0.169	0.287	0.223	0.275	0.266	0.194	0.195	0.184
LCLC-103H	0.789	0.782	0.682	0.787	0.723	0.686	0.717	0.681
LK-2	0.494	0.408	0.346	0.679	0.767	0.713	0.855	0.618
LOU-NH91	0.791	0.724	0.778	0.809	0.758	0.717	0.814	0.804
LU99A	0.29	0.441	0.303	0.255	0.592	0.558	0.421	0.456

Cell Line	relative viability (Midostaurin + AZD7762; first compound 0.01 µM)	relative viability (Midostaurin + AZD7762; first compound 0.03162 µM)	relative viability (Midostaurin + AZD7762; first compound 0.1 µM)	relative viability (Midostaurin + AZD7762; first compound 0.3162 µM)	relative viability (Midostaurin + Trametinib; first compound 0.01 µM)	relative viability (Midostaurin + Trametinib; first compound 0.03162 µM)	relative viability (Midostaurin + Trametinib; first compound 0.1 µM)	relative viability (Midostaurin + Trametinib; first compound 0.3162 µM)
LXF-289	1.14	1.13	1.07	1.09	0.687	0.653	0.671	0.685
NCI-H23	0.215	0.265	0.281	0.14	0.369	0.441	0.285	0.299
NCI-H322M	0.504	0.703	0.533	0.582	0.483	0.567	0.536	0.568
NCI-H358	0.475	0.513	0.571	0.391	0.146	0.158	0.133	0.14
NCI-H441	1.15	0.888	0.984	1.1	0.418	0.373	0.516	0.343
NCI-H460	0.678	0.626	0.635	0.704	0.176	0.174	0.116	0.12
NCI-H520					0.768	0.717	0.714	0.583
NCI-H522	0.86	0.833	0.864	0.91	0.719	0.825	0.752	0.839
NCI-H596	1.25	1.13	1.1	1.05	0.835	0.847	0.737	0.999
NCI-H647	0.576	0.392	0.41	0.324	0.491	0.593	0.552	0.372
NCI-H650	1.01	1.04	0.942	1.11	1.03	1.07	1	0.945
NCI-H661					0.597	0.617	0.61	0.534
NCI-H727	0.616	0.696	0.947	0.639	0.381	0.444	0.369	0.375
NCI-H838	0.843	0.892	0.848	0.865	0.518	0.562	0.412	0.311
NCI-H1355	0.703	0.798	0.766	0.674	0.413	0.459	0.477	0.487
NCI-H1395	0.407	0.427	0.408	0.429	0.978	0.991	1.15	1.08
NCI-H1437	1.14	1.1	1.06	1.11	0.615	0.502	0.588	0.518
NCI-H1648	0.766			0.656	0.532			0.432
NCI-H1650					0.64	0.587	0.594	0.694
NCI-H1651	0.455	0.557	0.459	0.478	0.81	0.804	0.795	0.949
NCI-H1666	0.881	0.804	0.911	0.778	0.823	0.882	0.711	0.81
NCI-H1703	0.141	0.115	0.123	0.12				
NCI-H1734	0.498	0.537	0.543	0.39	0.625	0.678	0.691	0.685
NCI-H1755	0.492	0.422	0.447	0.402	0.75	0.811	0.798	0.72
NCI-H1792	0.786	0.725	0.67	0.176	0.508	0.37	0.383	0.338

Cell Line	relative viability (Midostaurin + AZD7762; first compound 0.01 µM)	relative viability (Midostaurin + AZD7762; first compound 0.03162 µM)	relative viability (Midostaurin + AZD7762; first compound 0.1 µM)	relative viability (Midostaurin + AZD7762; first compound 0.3162 µM)	relative viability (Midostaurin + Trametinib; first compound 0.01 µM)	relative viability (Midostaurin + Trametinib; first compound 0.03162 µM)	relative viability (Midostaurin + Trametinib; first compound 0.1 µM)	relative viability (Midostaurin + Trametinib; first compound 0.3162 µM)
NCI-H1793	0.395	0.48	0.388	0.213	0.403	0.402	0.438	0.428
NCI-H1915	0.654	0.679	0.671	0.709	0.329	0.312	0.258	0.271
NCI-H1944	0.507	0.616	0.493	0.56	0.419	0.398	0.39	0.413
NCI-H1975	0.818	0.756	0.673	0.654	0.344	0.388	0.357	0.416
NCI-H1993	0.762	0.77	0.699	0.5	0.484	0.537	0.447	0.462
NCI-H2009					0.263	0.262	0.292	0.319
NCI-H2023					0.499	0.618	0.375	0.276
NCI-H2085	0.938	0.998	0.93	0.623	0.526	0.53	0.471	0.608
NCI-H2087	1.39	1.16	1.36	1.03	0.178	0.221	0.187	0.273
NCI-H2126	0.95	0.926	0.995	1.03	0.509	0.562	0.553	0.597
NCI-H2170	0.891	0.85	0.866	1.14	0.965	0.9	0.894	1.02
NCI-H2228					0.522	0.634	0.792	0.723
NCI-H2342	0.558	0.503	0.489	0.451	0.895	0.735	0.89	0.778
NCI-H2347	0.799	0.774	0.712	0.587	0.29	0.278	0.309	0.337
NCI-H2405	0.682	0.804	0.847	0.75	0.615	0.562	0.61	0.607
NCI-H3122	0.981	0.908	0.962	1.06	0.244	0.191	0.214	0.264
PC-3 [JPC-3]	0.737	0.892	0.759	0.869	0.684	0.722	0.699	0.814
PC-14	0.33	0.42	0.329	0.328	0.707	0.914	0.692	0.635
RERF-LC-KJ	0.994	0.96	1.05	1.03	0.854	0.921	0.84	0.806
SK-LU-1					0.511	0.517	0.521	0.509
SK-MES-1					0.57	0.565	0.526	0.493
SW 900	0.755	0.684	0.617	0.476	0.759	0.919	0.743	0.962
SW 1573					0.547	0.788	0.471	0.465
